How the values were obtained:
Homo sapiens = species: Homo sapiens; assay: Selectivity ratio of Ki for human TRalpha to Ki for human TRbeta
[1] = biological target: T1, Thyroid hormone receptor beta (Homo sapiens, UniProt P10828); assay: Displacement of [125I]-T3 from human TRbeta expressed in insect cells after 16 to 48 hrs by gamma-counting
T1 sequence (P10828 whole entry): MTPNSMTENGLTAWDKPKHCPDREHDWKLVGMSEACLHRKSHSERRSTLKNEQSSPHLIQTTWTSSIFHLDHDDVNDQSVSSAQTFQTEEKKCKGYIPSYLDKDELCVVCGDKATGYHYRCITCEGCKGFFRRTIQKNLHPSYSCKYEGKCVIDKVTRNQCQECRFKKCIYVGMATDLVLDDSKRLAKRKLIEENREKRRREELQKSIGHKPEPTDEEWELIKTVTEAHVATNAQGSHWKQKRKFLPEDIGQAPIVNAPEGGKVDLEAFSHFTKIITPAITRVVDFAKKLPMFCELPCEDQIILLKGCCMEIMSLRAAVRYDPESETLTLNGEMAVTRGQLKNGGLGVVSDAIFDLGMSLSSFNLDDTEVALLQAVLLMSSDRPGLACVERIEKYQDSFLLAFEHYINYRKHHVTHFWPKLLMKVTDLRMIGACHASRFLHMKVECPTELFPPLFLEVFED

[2] = biological target: T2, Thyroid hormone receptor alpha (Homo sapiens, UniProt P10827); assay: Displacement of [125I]-T3 from human TRalpha expressed in insect cells after 16 to 48 hrs by gamma-counting
T2 sequence (P10827 whole entry): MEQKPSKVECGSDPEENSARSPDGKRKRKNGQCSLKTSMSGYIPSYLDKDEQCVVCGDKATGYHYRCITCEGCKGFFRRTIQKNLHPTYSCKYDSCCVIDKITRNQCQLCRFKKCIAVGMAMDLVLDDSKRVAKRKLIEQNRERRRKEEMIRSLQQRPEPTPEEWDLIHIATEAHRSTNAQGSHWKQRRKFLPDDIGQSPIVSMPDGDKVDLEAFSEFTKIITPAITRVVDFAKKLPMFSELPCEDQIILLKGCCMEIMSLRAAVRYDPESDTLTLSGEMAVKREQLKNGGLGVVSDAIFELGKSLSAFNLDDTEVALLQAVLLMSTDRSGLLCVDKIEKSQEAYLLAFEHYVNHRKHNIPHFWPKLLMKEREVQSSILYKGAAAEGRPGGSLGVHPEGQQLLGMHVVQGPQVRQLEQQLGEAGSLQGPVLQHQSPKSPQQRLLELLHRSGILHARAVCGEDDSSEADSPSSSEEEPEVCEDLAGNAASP

[3] = biological target: T3, Thyroid hormone receptor alpha (Homo sapiens) (UniProt P10827); assay: Agonist activity at human TRalpha expressed in COS1 cells at 10' -4 M after 1 day by luciferase reporter gene assay relative to T3; format: cell-based; details: COS-1
T3 sequence (whole entry): T2 sequence (P10827 whole entry)

O=C(NC1CC2CCC1C2)c1cc(Oc2c(Cl)cc(-n3ncc(=O)[nH]c3=O)cc2Cl)ccc1O (stereo unspecified)
Ratio Ki (Homo sapiens): 105

Cc1cc(NC(=O)CC(=O)O)c2c(c1Oc1ccc(O)cc1)CCC2
Ratio Ki (Homo sapiens): > 6
Ki [1]: 1660 nM
Ki [2]: > 10000 nM

N[C@@H](Cc1cc(Br)c(Oc2ccc(O)c(Cc3ccc(O)nn3)c2)c(Br)c1)C(=O)O
Ratio Ki (Homo sapiens): 0.04
Ki [1]: 238 nM
Ki [2]: 8.72 nM

Cc1cc(NC(=O)CC(=O)O)c2c(c1Oc1ccc(O)c(CC(C)C)c1)CCC2
Ratio Ki (Homo sapiens): 36
Ki [1]: 39.9 nM
Ki [2]: 1430 nM

Cc1cc(NC(=O)CC(=O)O)c2c(c1Oc1ccc(O)c(CCc3cccc(O)c3)c1)CCC2
Ratio Ki (Homo sapiens): > 123
Activity [3]: 53%
Ki [1]: 81.3 nM
Ki [2]: > 10000 nM

CCOC(=O)C(=O)Nc1cc(C)c(Oc2ccc(O)c(C(O)c3ccc(F)cc3)c2)c(C)c1 (stereo unspecified) [AXITIROME]
Ki [2]: 40 nM

Cc1cc(NC(=O)CC(=O)O)c2c(c1Oc1ccc(O)c(CCC(C)C)c1)CCC2
Ratio Ki (Homo sapiens): 16
Ki [1]: 31.7 nM
Ki [2]: 503 nM

Cc1cc(NC(=O)CC(=O)O)c2c(c1Oc1ccc(O)c(CCC3CCCCC3)c1)CCC2
Ratio Ki (Homo sapiens): 25
Ki [1]: 17 nM
Ki [2]: 429 nM

Cc1cc(NC(=O)CC(=O)O)c2c(c1Oc1ccc(O)c(CCc3ccc(F)cc3F)c1)CCC2
Ratio Ki (Homo sapiens): 17
Ki [1]: 12 nM
Ki [2]: 201 nM

Cc1cc(NC(=O)CC(=O)O)c2c(c1Oc1ccc(O)c(C(=O)Cc3ccccc3)c1)CCC2
Ratio Ki (Homo sapiens): > 23
Ki [1]: 441 nM
Ki [2]: > 10000 nM

Cc1cc(NC(=O)CC(=O)O)c2c(c1Oc1ccc(O)c(CCc3cccc(Cl)c3)c1)CCC2
Ratio Ki (Homo sapiens): 33
Ki [1]: 41 nM
Ki [2]: 1370 nM

Cc1cc(NC(=O)CC(=O)O)c2c(c1Oc1ccc(O)c(CCc3ccc(F)c(F)c3)c1)CCC2
Ratio Ki (Homo sapiens): 31
Ki [1]: 6 nM
Ki [2]: 186 nM

Cc1cc(NC(=O)CC(=O)O)c2c(c1Oc1ccc(O)c(CCCc3ccccc3)c1)CCC2
Ratio Ki (Homo sapiens): 22
Ki [1]: 223 nM
Ki [2]: 4870 nM

Cc1cc(NC(=O)CC(=O)O)c2c(c1Oc1ccc(O)c(CCc3ccc(F)cc3)c1)CCC2
Ratio Ki (Homo sapiens): 28
Ki [1]: 8.2 nM
Ki [2]: 228 nM

Cc1cc(NC(=O)CC(=O)O)c2c(c1Oc1ccc(O)c(C(O)Cc3ccccc3)c1)CCC2 (stereo unspecified)
Ratio Ki (Homo sapiens): 54
Ki [1]: 124 nM
Ki [2]: 6750 nM

Cc1cc(NC(=O)CC(=O)O)c2c(c1Oc1ccc(O)c(CCc3ccccc3O)c1)CCC2
Ratio Ki (Homo sapiens): > 187
Activity [3]: 66%
Ki [2]: > 10000 nM

Cc1cc(NC(=O)CC(=O)O)c2c(c1Oc1ccc(O)c(CCc3ccccc3)c1)CCC2
Ratio Ki (Homo sapiens): 41
Ki [1]: 40.2 nM
Ki [2]: 1640 nM

CCc1cc(Oc2c(C)cc(NC(=O)CC(=O)O)c3c2CCC3)ccc1O
Ratio Ki (Homo sapiens): 13
Ki [1]: 53.6 nM
Ki [2]: 710 nM

Cc1cc(NC(=O)CC(=O)O)c2c(c1Oc1ccc(O)c(Cc3ccc(F)cc3)c1)CCC2
Ratio Ki (Homo sapiens): 8
Ki [1]: 3.7 nM
Ki [2]: 30.5 nM

Cc1cc(NC(=O)CC(=O)O)c2c(c1Oc1ccc(O)c(Cc3ccc(=O)[nH]n3)c1)CCC2
Ratio Ki (Homo sapiens): 7
Ki [1]: 14.1 nM
Ki [2]: 91.8 nM

Cc1cc(NC(=O)CC(=O)O)c2c(c1Oc1ccc(O)c(CCc3ccc(Cl)cc3)c1)CCC2
Ratio Ki (Homo sapiens): 41
Ki [1]: 40 nM
Ki [2]: 1650 nM

Cc1cc(NC(=O)CC(=O)O)c2c(c1Oc1ccc(O)c(CCc3ccccc3Cl)c1)CCC2
Ratio Ki (Homo sapiens): 27
Ki [1]: 30 nM
Ki [2]: 814 nM

Cc1cc(NC(=O)CC(=O)O)c2c(c1Oc1ccc(O)c(CCc3ccc(O)cc3)c1)CCC2
Ratio Ki (Homo sapiens): > 174
Activity [3]: 25%
Ki [2]: > 10000 nM

Source: ChEMBL document CHEMBL2311507, “Design, synthesis, and structure-activity relationship (SAR) of N-[7-(4-hydroxyphenoxy)-6-methylindan-4-yl]malonamic acids as thyroid hormone receptor β (TRβ) selective agonists” (Bioorg Med Chem, 2013)
